Columns and labels:
[1] = test system: motor neurons in astrocyte/motor neuron co-cultures; experiment: Survival of motor neurons in astrocyte/motor neuron co-cultures; type: cell-based, rats; settings: for % OF LABELED MOTOR NEURONS: vehicle alone = 100 ± 9.4
Protocol: (§1) The motor neuron-enriched cultures are prepared using the centrifugation method which was described by R. L. SCHNAAR and A. E. SCHAFFNER, J. Neurosci., 1, 204-217 (1981) and modified by W. CAMU and C. E. HENDERSON, J. Neurosci. Methods, 44, 59-70 (1992). The motor neurons are spread, at a density of 2500 cells per plate, on 35 mm culture plates which have previously been coated with laminin/ornithine in accordance with the method of A. G. ESTEVEZ et al., J. Neurosci., 18 (3), 923-931 (1998). The cultures are then maintained in L15 medium (GIBCO BRL) containing sodium bicarbonate (22 mM), conalbumin (0.1 mg/ml), putrescine (0.1 mM), insulin (5 μg/ml), sodium selenite ([…]), glucose (20 mM), progesterone (21 nM), penicillin (100 IU/ml) and streptomycin (100 μg/ml).
The astrocytes are obtained from young, one-day-old rats using the slightly modified method of R. P. SANETO and J. DE VELLIS as described in Neurochemistry a practical approach (A. J. TURNER and H. S. St JOHN) IRL Press, Oxford-Washington D.C., pp. 27-63. The spinal cords are dissected out under sterile conditions and freed of meninges and dorsal ganglia. Five to ten spinal cords are transferred into PBS (phosphate buffer saline) and cut before being incubated at 37° C. for 25 minutes in PBS to which 0.25% trypsin has been added. The enzymatic treatment is stopped by adding 10 ml of Dulbecco's modified Eagle medium (DMEM), to which 10% fetal calf serum (FCS) has been added, and the cells are collected by centrifugation. Another step of mechanical dissociation is performed using the end of a 1 ml pipette. The cells are spread, at a density of 1.5-2×10^6 cells per 25 cm^2 of culture medium, in DMEM containing 10% FCS. After 2 days in vitro, the cultures are fed every day. When a visible monolayer of cells has been completed, the cultures are stirred at 250 rpm for 48 hours and, on the following day, the monolayers are treated with cytosine arabinoside (10^−5 M) for 48 hours. The astrocyte monolayers are then amplified to a density of five on 35 mm culture plates for initially 25 cm^2 culture flasks.
The spinal astrocyte cultures consist, to an extent of more than 98%, of flat, polygonal cells which are immunoreactive for the glial fibrillar acid protein (GFAP). The monolayers are exposed to the product to be tested and then incubated with the motor neuron medium in order to obtain a conditioned culture medium. This medium is transferred and tested at different dilutions in order to determine its effects on neuronal survival.
The cells are fixed in 4% paraformaldehyde and 0.1% glutaraldehyde in PBS (pH 7.4 and at 4° C. for 15 minutes) and in a cold methanolic solution. […]

[2] = test system: motor neurons in motor neuron-enriched cultures; experiment: Neuronal death in motor neuron-enriched cultures in the absence of trophic factor; type: cell-based; settings: p<0.05
Protocol: The effect of nicergoline has therefore been determined in a degeneration model which is induced by depriving cultured motor neurons of neurotrophic factor.
as §1
More than 70% of the cells are immunoreactive for the neurotrophin p75 receptor and the Islet ½ markers for spinal motor neurons. […]
The number of motor neurons is estimated by counting the labeled cells in an area of 0.4-1 cm^2 under a microscope which enlarges 200 times. In all cases, the values are expressed as a percentage of the number of motor neurons which are present in cultures maintained using trophic factors. […]

CO[C@]12C[C@@H](COC(=O)c3cncc(Br)c3)CN(C)[C@@H]1Cc1cn(C)c3cccc2c13 [Nicergoline, (8β)-10-methoxy-1,6-dimethylergoline-8-methanol-5-bromonicotinate]
% OF LABELED MOTOR NEURONS ([1]; nicergoline 0.1 μM): 115.7 ± 16% | % OF LABELED MOTOR NEURONS ([1]; nicergoline 1 μM, p < 0.05 vs vehicle): 145.5 ± 24 % | increase of the survival of motor neurons as compared with cocultures treated with the vehicle alone ([1]; nicergoline 10 μM): 63.7% | % OF LABELED MOTOR NEURONS ([1]; nicergoline 10 μM, p < 0.01 vs vehicle): 163.7 ± 22.5 % | increase of the survival of the motor neurons [2]: 13%

— patent publication US20030134869A1, “Novel therapeutic use of nicergoline” (priority 1998, published 2003)
